In patent US20220232831A1, “NOVEL NON-CODING HETEROCYCLIC AMINO ACIDS (NCHAA) AND THEIR USE AS HERBICIDES” (Fortephest Ltd., priority 2019, published 2022):

Assays:
[1] = system: Seeds of Lettuce R. (Super-Jericho); test: Filter paper bioassay with lettuce seeds (germination and early plant development); type: in vivo; conditions: lettuce seeds on filter paper; 1, 0.1, 0.01, 0.001 mM; radicle and shoots assessed after 6 days
Protocol: Seeds of Lettuce R. (Super-Jericho, non-sterilized) were obtained from Ben Shahar Moshe Ltd., 99% purity.
Filter Paper Bioassays with Lettuce Seeds:
The protocol is following Bertin et al. 2009 and Movellan et al. 2014 with specified modifications as described below.
Seeds were placed on Whatman no. 1 filter paper (Whatman, Middlesex, U.K.) in Petri dishes (10 seeds per plate) supplemented with 2.0 ml of water (Control) or with a solution comprising 1 mM, 0.1 mM, 0.01 mM and 0.001 mM of test material. Petri dishes with seeds were placed in a tray at an angle of 45°. The trays were kept in dark for 48 hours and then transferred to the growth chamber (22° C., 0.045 mmol×m−2×s−1 photosynthetic photon flux density; 6/18 dark/light cycle) for additional 4 days. Each experiment was performed at least in two repeats. The development of radicle and shoots of experimental and control plants were visually assessed 6 days after the beginning of the test to determine Minimal Effective Concentration (MEC) of test material. In the context of the invention, MEC is defined as the lowest concentration level of a test material that caused deviation (absence of germination or malformation of radicle and shoots) from the plant's development in the Control group.

[2] = system: Romaine lettuce (Lactuca sativa L.) plants; test: Post-emergency herbicidal activity on Romaine lettuce plants; type: in vivo; conditions: Romaine lettuce at stage 2 to 3 leaves; compound in 0.1% Silwet, up to 0.5%; visual evaluation vs control plants
Protocol: The tests were performed on Romaine lettuce (Lactuca sativa L.) plants at the stage 2 to 3 leaves. The plants were grown on 300 well trays packed with soil, well dimensions 2×2×5 cm. Each compound was dissolved in 0.1% water solution of agronomically acceptable surfactant Silwet to final concentrations ranging from 0.0% (Control) to 0.5%. Two weeks after the treatment the herbicidal effects of the respective test material were visually evaluated by a comparison with the control plants. In addition, the aboveground part of the plant was neatly cut and weighed (wet weight). Each test was performed on 20 to 40 plants. The degree of growth inhibition and damage was evaluated according to the parameters in Table 2. Plant development at 7, 14, and 21 DAA (days after application) were evaluated on a scale of 0 to 100, in which score 0 represents dead plants and score 100 represents healthy plants according to plant vigor, height, and leaf color. Each test included 20 to 40 plants.

NC(CNS(=O)(=O)c1cscc1F)C(=O)O (centres unmarked) [Code 506]
Minimal Effective Concentration (MEC) as activity score, seeds germination & early plants development [1]: Weak (More than 1 mM) | post-emergency herbicidal activity (Activity Index: plant's development vs Control) [2]: Weak (More than 75)

CCCOC(=O)C(N)Cc1cc(Cl)oc1Cl (centres unmarked) [Code 575]
Minimal Effective Concentration (MEC) as activity score, seeds germination & early plants development [1]: Strong (0.1 mM) | post-emergency herbicidal activity (Activity Index: plant's development vs Control) [2]: Moderate (From 50 to 75)

NC(CP(=O)(O)O)c1ccsc1 (centres unmarked) [Code 563]
Minimal Effective Concentration (MEC) as activity score, seeds germination & early plants development [1]: Weak (More than 1 mM) | post-emergency herbicidal activity (Activity Index: plant's development vs Control) [2]: Weak (More than 75)

NC(Cc1cnccn1)C(=O)O (centres unmarked) [Code 621]
Minimal Effective Concentration (MEC) as activity score, seeds germination & early plants development [1]: Weak (More than 1 mM) | post-emergency herbicidal activity (Activity Index: plant's development vs Control) [2]: Weak (More than 75)

NC(Cc1cnc(Cl)c(Cl)c1)C(=O)O (centres unmarked) [Code 641]
Minimal Effective Concentration (MEC) as activity score, seeds germination & early plants development [1]: Strong (0.1 mM) | post-emergency herbicidal activity (Activity Index: plant's development vs Control) [2]: Very Strong (From 15 to 25)

CCOC(=O)C(Cc1nc[nH]n1)NC(=O)OCc1ccccc1 (centres unmarked) [Code 714]
Minimal Effective Concentration (MEC) as activity score, seeds germination & early plants development [1]: Moderate (1 mM) | post-emergency herbicidal activity (Activity Index: plant's development vs Control) [2]: Weak (More than 75)

NC(Cc1cncs1)C(=O)O (centres unmarked) [Code 520]
Minimal Effective Concentration (MEC) as activity score, seeds germination & early plants development [1]: Strong (0.1 mM) | post-emergency herbicidal activity (Activity Index: plant's development vs Control) [2]: Weak (More than 75)

Cc1nc(N)c(CC(N)C(=O)O)c(O)n1 (centres unmarked) [Code 669]
Minimal Effective Concentration (MEC) as activity score, seeds germination & early plants development [1]: Weak (More than 1 mM) | post-emergency herbicidal activity (Activity Index: plant's development vs Control) [2]: Weak (More than 75)

CCOCCOC(=O)C(Cc1nc(Cl)sc1Cl)NC(C)=O (centres unmarked) [Code 555]
Minimal Effective Concentration (MEC) as activity score, seeds germination & early plants development [1]: Strong (0.1 mM) | post-emergency herbicidal activity (Activity Index: plant's development vs Control) [2]: Maximal (Less than 15)

O=C(O)[C@@H](O)Cc1c[nH]cn1 [Code 710]
Minimal Effective Concentration (MEC) as activity score, seeds germination & early plants development [1]: Weak (More than 1 mM) | post-emergency herbicidal activity (Activity Index: plant's development vs Control) [2]: Weak (More than 75)

NC(Cc1cnc[nH]c1=O)C(=O)O (centres unmarked) [Code 646]
Minimal Effective Concentration (MEC) as activity score, seeds germination & early plants development [1]: Weak (More than 1 mM) | post-emergency herbicidal activity (Activity Index: plant's development vs Control) [2]: Weak (More than 75)

CCOC(=O)C(N)Cc1cc(Cl)sc1Cl (centres unmarked) [Code 569]
Minimal Effective Concentration (MEC) as activity score, seeds germination & early plants development [1]: Strong (0.1 mM) | post-emergency herbicidal activity (Activity Index: plant's development vs Control) [2]: Maximal (Less than 15)

NC(CNS(=O)(=O)c1c(Cl)sc(Cl)c1C(F)(F)F)C(=O)O (centres unmarked) [Code 521]
Minimal Effective Concentration (MEC) as activity score, seeds germination & early plants development [1]: Weak (More than 1 mM) | post-emergency herbicidal activity (Activity Index: plant's development vs Control) [2]: Weak (More than 75)

N[C@@H](Cn1oc(=O)[nH]c1=O)C(=O)O [Code 557]
Minimal Effective Concentration (MEC) as activity score, seeds germination & early plants development [1]: Weak (More than 1 mM) | post-emergency herbicidal activity (Activity Index: plant's development vs Control) [2]: Weak (More than 75)

CCOC(=O)C(Cc1ccc(Br)nc1)NC(C)=O (centres unmarked) [Code 671]
Minimal Effective Concentration (MEC) as activity score, seeds germination & early plants development [1]: Strong (0.1 mM) | post-emergency herbicidal activity (Activity Index: plant's development vs Control) [2]: Weak (More than 75)

NC(Cc1ccnc(S)c1)C(=O)O (centres unmarked) [Code 613]
Minimal Effective Concentration (MEC) as activity score, seeds germination & early plants development [1]: Weak (More than 1 mM) | post-emergency herbicidal activity (Activity Index: plant's development vs Control) [2]: Weak (More than 75)

CCOC(=O)C(N)Cc1ccnc(Br)c1Br (centres unmarked) [Code 662]
Minimal Effective Concentration (MEC) as activity score, seeds germination & early plants development [1]: Strong (0.1 mM) | post-emergency herbicidal activity (Activity Index: plant's development vs Control) [2]: Moderate (From 50 to 75)

NC(Cc1cocn1)C(=O)O (centres unmarked) [Code 542]
Minimal Effective Concentration (MEC) as activity score, seeds germination & early plants development [1]: Weak (More than 1 mM) | post-emergency herbicidal activity (Activity Index: plant's development vs Control) [2]: Weak (More than 75)

CCOCCOCCOC(=O)C(Cc1cc(Cl)sc1Cl)NC(C)=O (centres unmarked) [Code 577]
Minimal Effective Concentration (MEC) as activity score, seeds germination & early plants development [1]: Moderate (1 mM) | post-emergency herbicidal activity (Activity Index: plant's development vs Control) [2]: Strong (From 25 to 50)

NC(Cc1cc(Br)sc1Br)C(=O)O (centres unmarked) [Code 552]
Minimal Effective Concentration (MEC) as activity score, seeds germination & early plants development [1]: Moderate (1 mM) | post-emergency herbicidal activity (Activity Index: plant's development vs Control) [2]: Maximal (Less than 15)

Nc1cncc(CC(N)C(=O)O)c1 (centres unmarked) [Code 610]
Minimal Effective Concentration (MEC) as activity score, seeds germination & early plants development [1]: Weak (More than 1 mM) | post-emergency herbicidal activity (Activity Index: plant's development vs Control) [2]: Weak (More than 75)

O=C1C=C(CC(NP(=O)(O)O)C(=O)O)C(=O)S1 (centres unmarked) [Code 565]
Minimal Effective Concentration (MEC) as activity score, seeds germination & early plants development [1]: Strong (0.1 mM) | post-emergency herbicidal activity (Activity Index: plant's development vs Control) [2]: Weak (More than 75)

NC(Cc1cc[nH]c(=O)c1)C(=O)O (centres unmarked) [Code 642]
Minimal Effective Concentration (MEC) as activity score, seeds germination & early plants development [1]: Weak (More than 1 mM) | post-emergency herbicidal activity (Activity Index: plant's development vs Control) [2]: Weak (More than 75)

CN(C)c1ccncc1CC(N)C(=O)O (centres unmarked) [Code 643]
Minimal Effective Concentration (MEC) as activity score, seeds germination & early plants development [1]: Weak (More than 1 mM) | post-emergency herbicidal activity (Activity Index: plant's development vs Control) [2]: Weak (More than 75)

C[n+]1cncc(CC(N)C(=O)O)c1 (centres unmarked) [Code 676]
Minimal Effective Concentration (MEC) as activity score, seeds germination & early plants development [1]: Moderate (1 mM) | post-emergency herbicidal activity (Activity Index: plant's development vs Control) [2]: Very Strong (From 15 to 25)

CCOC(=O)C(Cc1csc[n+]1C)NC(C)=O.[Cl-] (centres unmarked) [Code 576]
Minimal Effective Concentration (MEC) as activity score, seeds germination & early plants development [1]: Moderate (1 mM) | post-emergency herbicidal activity (Activity Index: plant's development vs Control) [2]: Maximal (Less than 15)

NC(Cc1ccncn1)C(=O)O (centres unmarked) [Code 625]
Minimal Effective Concentration (MEC) as activity score, seeds germination & early plants development [1]: Moderate (1 mM) | post-emergency herbicidal activity (Activity Index: plant's development vs Control) [2]: Weak (More than 75)

Nc1ncc(CC(N)C(=O)O)c(=O)[nH]1 (centres unmarked) [Code 664]
Minimal Effective Concentration (MEC) as activity score, seeds germination & early plants development [1]: Moderate (1 mM) | post-emergency herbicidal activity (Activity Index: plant's development vs Control) [2]: Weak (More than 75)

Cl.Cl.NC(Cc1ncccn1)C(=O)O (centres unmarked) [Code 618]
Minimal Effective Concentration (MEC) as activity score, seeds germination & early plants development [1]: Weak (More than 1 mM) | post-emergency herbicidal activity (Activity Index: plant's development vs Control) [2]: Weak (More than 75)

NC(Cc1cc(=O)[nH]cn1)C(=O)O (centres unmarked) [Code 645]
Minimal Effective Concentration (MEC) as activity score, seeds germination & early plants development [1]: Weak (More than 1 mM) | post-emergency herbicidal activity (Activity Index: plant's development vs Control) [2]: Weak (More than 75)

Nc1ccnc(CC(N)C(=O)O)c1 (centres unmarked) [Code 607]
Minimal Effective Concentration (MEC) as activity score, seeds germination & early plants development [1]: Weak (More than 1 mM) | post-emergency herbicidal activity (Activity Index: plant's development vs Control) [2]: Weak (More than 75)

NC(Cc1nnc[nH]1)C(=O)O (centres unmarked) [Code 709]
Minimal Effective Concentration (MEC) as activity score, seeds germination & early plants development [1]: Moderate (1 mM) | post-emergency herbicidal activity (Activity Index: plant's development vs Control) [2]: Maximal (Less than 15)

CCCOCCOC(=O)C(N)CNS(=O)(=O)c1cc(Cl)sc1Cl (centres unmarked) [Code 525]
Minimal Effective Concentration (MEC) as activity score, seeds germination & early plants development [1]: Weak (More than 1 mM) | post-emergency herbicidal activity (Activity Index: plant's development vs Control) [2]: Weak (More than 75)

CCCCOC(=O)C(N)Cc1ccsc1 (centres unmarked) [Code 513]
Minimal Effective Concentration (MEC) as activity score, seeds germination & early plants development [1]: Strong (0.1 mM) | post-emergency herbicidal activity (Activity Index: plant's development vs Control) [2]: Very Strong (From 15 to 25)

COCCOCCOC(=O)C(N)Cc1ccc(Br)nc1 (centres unmarked) [Code 674]
Minimal Effective Concentration (MEC) as activity score, seeds germination & early plants development [1]: Strong (0.1 mM) | post-emergency herbicidal activity (Activity Index: plant's development vs Control) [2]: Moderate (From 50 to 75)

CCOC(=O)C(N)CNS(=O)(=O)c1cc(Br)sc1Br (centres unmarked) [Code 580]
Minimal Effective Concentration (MEC) as activity score, seeds germination & early plants development [1]: Strong (0.1 mM) | post-emergency herbicidal activity (Activity Index: plant's development vs Control) [2]: Very Strong (From 15 to 25)

NC(Cc1cc(=O)[nH]c(S)n1)C(=O)O (centres unmarked) [Code 653]
Minimal Effective Concentration (MEC) as activity score, seeds germination & early plants development [1]: Weak (More than 1 mM) | post-emergency herbicidal activity (Activity Index: plant's development vs Control) [2]: Weak (More than 75)

CCOC(=O)C(N)Cc1ccsc1 (centres unmarked) [Code 547]
Minimal Effective Concentration (MEC) as activity score, seeds germination & early plants development [1]: Maximal (0.01 mM and less) | post-emergency herbicidal activity (Activity Index: plant's development vs Control) [2]: Very Strong (From 15 to 25)

NC(Cc1ccsc1)C(=O)NCCOCCO (centres unmarked) [Code 549]
Minimal Effective Concentration (MEC) as activity score, seeds germination & early plants development [1]: Weak (More than 1 mM) | post-emergency herbicidal activity (Activity Index: plant's development vs Control) [2]: Weak (More than 75)

NC(Cc1cc(Cl)cnc1Cl)C(=O)O (centres unmarked) [Code 624]
Minimal Effective Concentration (MEC) as activity score, seeds germination & early plants development [1]: Moderate (1 mM) | post-emergency herbicidal activity (Activity Index: plant's development vs Control) [2]: Moderate (From 50 to 75)
